Measurements taken from patent publication US20230416692A1 (BOARD OF REGENTS, THE UNIVERSITY OF TEXAS SYSTEM, priority 2020, published 2023).
Where “and” joins values, the source holds several entries; their conditions need not be identical. Equal entries are not always repeated. Where two headings read alike, the source gives them in different places.

Legend:
[1] = human exposures in the clinics, cited from earlier work; for Cmax: read-out: Exposure (μM): Cmax
SARS-CoV-2-Nluc [2] = experiment: microbe, parasite or virus in culture; format: cell-based
plasma protein = conditions: data from literature; cited from earlier work
SARS-CoV-2-Nluc [3] = experiment: microbe, parasite or virus in culture; format: cell-based; remark: listed apart in the source
icSARS-CoV-2-mNG = format: cell-based, SARS-CoV-2
[4] = Severe acute respiratory syndrome coronavirus 2, 48 h
[5] = Severe acute respiratory syndrome coronavirus 2
[6] = Severe acute respiratory syndrome coronavirus 2, Vero C1008
[7] = Severe acute respiratory syndrome coronavirus 2, Vero C1008, 48 h

For CCC[C@@]1(CCc2ccccc2)CC(O)=C([C@H](CC)c2cccc(NS(=O)(=O)c3ccc(C(F)(F)F)cn3)c2)C(=O)O1 [Tipranavir], the “Exposure (μM): Cmin” value [1] is given as 30.8 µM, the Cmax [1] is given as 130 µM and the EC50 (SARS-CoV-2-Nluc [2]) is given as 8.65 ± 0.16 µM. The “SI (selectivity index)” value (SARS-CoV-2-Nluc [2]) was 3.3, the EC50 (SARS-CoV-2-Nluc [2]; [4]) was 8 to 9 µM and the “Plasma protein binding (%)” value (plasma protein) was 99.9%. It also gave a CC50 (A549-hACE2 cells; human) of 28.4 ± 0.5 µM.
In the case of CCC(CC)COC(=O)[C@H](C)N[P@](=O)(OC[C@H]1O[C@@](C#N)(c2ccc3c(N)ncnn23)[C@H](O)[C@@H]1O)Oc1ccccc1 [Remdesivir], the “SI (selectivity index)” value (SARS-CoV-2-Nluc [2]) is reported as 284, the EC50 (SARS-CoV-2-Nluc [2]; [5]) is reported as 0.115 µM and the EC50 (SARS-CoV-2-Nluc [2]; [4]) is reported as 0.115 µM. It also gave an EC50 (SARS-CoV-2-Nluc [3]; [6]) of 1.28 µM and an EC50 (SARS-CoV-2-Nluc [3]; [7]) of 1.28 µM.
For COc1ccc2c(O[C@@H]3C[C@H]4C(=O)N[C@]5(P(=O)(O)Cc6c(F)cccc6F)C[C@H]5CCCCCCC[C@H](NC(=O)OC5CCCC5)C(=O)N4C3)cc(-c3csc(NC(C)C)n3)nc2c1Cl [GS-9256], the EC50 (SARS-CoV-2-Nluc [2]; read-out: EC50) was > 10 µM and the CC50 (A549-hACE2 cells) was 31.8 ± 10.9 µM.
For CC(C)CN(C[C@@H](O)[C@H](Cc1ccccc1)NC(=O)O[C@H]1CCOC1)S(=O)(=O)c1ccc(N)cc1 [Amprenavir], the “activity against SARS-CoV-2-Nluc (in words)” value (“activity” for short) (SARS-CoV-2-Nluc [2]) is given as “inactive”, the EC50 (SARS-CoV-2-Nluc [2]; [4]) is given as > 10 µM and the “Plasma protein binding (%)” value (plasma protein) is given as 90%. The CC50 (A549-hACE2 cells; human) was > 50 µM.
In the case of CCOC(=O)/C=C/[C@H](C[C@@H]1CCNC1=O)NC(=O)[C@@H](CC(=O)[C@@H](NC(=O)c1cc(C)on1)C(C)C)Cc1ccc(F)cc1 [Rupintrivir], the EC50 (SARS-CoV-2-Nluc [2]) is reported as 1.87 ± 0.47 µM, the “SI (selectivity index)” value (SARS-CoV-2-Nluc [2]) is reported as >26.7 and the EC50 (SARS-CoV-2-Nluc [2]; [5]) is reported as 0.77 to 2.74 µM. For the same compound, the CC50 (A549-hACE2 cells; human) was > 50 µM.
In the case of Cc1c(O)cccc1C(=O)N[C@@H](CSc1ccccc1)[C@H](O)CN1C[C@H]2CCCC[C@H]2C[C@H]1C(=O)NC(C)(C)C [Nelfinavir], the “Exposure (μM): Cmin” value [1] is listed as 2.6 µM, the Cmax [1] is listed as 8.3 µM and the EC50 (SARS-CoV-2-Nluc [2]) is listed as 0.77 µM. For the same compound, the “SI (selectivity index)” value (SARS-CoV-2-Nluc [2]) was 16 and 15.7, the EC50 (SARS-CoV-2-Nluc [2]; [5]) was 0.77 to 2.74 µM and the EC50 (SARS-CoV-2-Nluc [2]; [4]) was 0.77 to 2.74 µM. For the same compound, the “Plasma protein binding (%)” value (plasma protein) was >98% and the CC50 (A549-hACE2 cells; human) was 12 ± 1.3 µM.
In the case of IFN-α, the “EC50 (concentration inhibiting 50% of viral replication)” value (icSARS-CoV-2-mNG) is reported as 101 u/ml, the “mNG expression (visual)” value (icSARS-CoV-2-mNG) is reported as “No mNG expression was visually observed” and the mNG signal (icSARS-CoV-2-mNG) is reported as “dose-dependent reduction of mNG signal”.
In the case of Nc1nc(=O)n([C@@H]2CS[C@H](CO)O2)cc1F [Emtricitabine], the Cmax [1] is given as 7.9 µM, the “activity” value (SARS-CoV-2-Nluc [2]) is given as “inactive” and the EC50 (SARS-CoV-2-Nluc [2]; [4]) is given as > 10 µM. The “Plasma protein binding (%)” value (plasma protein) was 4% and the CC50 (A549-hACE2 cells; human) was > 50 µM.
With CCC(CC)O[C@@H]1C=C(C(=O)O)C[C@H](N)[C@H]1NC(C)=O [Oseltamivir carboxylate] the EC50 (SARS-CoV-2-Nluc [2]; [4]) was > 10 µM and the CC50 (A549-hACE2 cells; human) was > 50 µM.
With CC#CC(=O)N1CC[C@@H](n2c(=O)n(-c3ccc(Oc4ccccc4)cc3)c3c(N)ncnc32)C1 [Tirabrutinib] the EC50 (SARS-CoV-2-Nluc [2]; [4]) was > 10 µM and the CC50 (A549-hACE2 cells; human) was > 50 µM.
With COC[C@H]1C[C@@H](c2ncc(-c3ccc4c(c3)COc3cc5c(ccc6nc([C@@H]7CC[C@H](C)N7C(=O)[C@@H](NC(=O)OC)C(C)C)[nH]c65)cc3-4)[nH]2)N(C(=O)[C@H](NC(=O)OC)c2ccccc2)C1 [Velpatasvir] the “activity” value (SARS-CoV-2-Nluc [2]) was “inactive”, the EC50 (SARS-CoV-2-Nluc [2]; [4]) was > 10 µM and the CC50 (A549-hACE2 cells; human) was > 50 µM.
With CC(C)[C@@]1(C(=O)N[C@H]2CC(=O)O[C@]2(O)CF)CC(c2nccc3ccccc23)=NO1 [Nivocasan] the “activity” value (SARS-CoV-2-Nluc [2]) was “inactive”, the EC50 (SARS-CoV-2-Nluc [2]; read-out: EC50) was > 10 µM and the CC50 (A549-hACE2 cells) was > 50 µM.
With CC1=CC[C@H](C(=O)N(c2cc(C#CC(C)(C)C)sc2C(=O)O)[C@H]2CC[C@](O)(CO[C@H]3CCOC3)CC2)CC1 [Radalbuvir] the EC50 (SARS-CoV-2-Nluc [2]; [4]) was > 10 µM and the CC50 (A549-hACE2 cells; human) was > 50 µM.
For CC(C)OC(=O)[C@H](C)N[P@+]([O-])(OC[C@H]1O[C@@](C#N)(c2ccc3c(N)ncnn23)[C@](C)(O)[C@@H]1OC(=O)C(C)C)Oc1ccccc1 [GS-6620], the EC50 (SARS-CoV-2-Nluc [2]; read-out: EC50) was > 10 µM and the CC50 (A549-hACE2 cells) was > 50 µM.
In the case of Voxilaprevir, the EC50 (SARS-CoV-2-Nluc [2]; read-out: EC50) is reported as > 10 µM and the CC50 (A549-hACE2 cells) is reported as 16 ± 1.2 µM.
For NC(=O)c1ncn([C@@H]2O[C@H](CO)[C@@H](O)[C@H]2O)n1 [Ribavirin], the EC50 (SARS-CoV-2-Nluc [2]; [4]) was > 10 µM and the CC50 (A549-hACE2 cells; human) was > 50 µM.
In the case of CC(C)c1nc(CN(C)C(=O)N[C@@H](CCN2CCOCC2)C(=O)N[C@H](CC[C@H](Cc2ccccc2)NC(=O)OCc2cncs2)Cc2ccccc2)cs1 [Cobicistat], the “SI (selectivity index)” value (SARS-CoV-2-Nluc [2]) is reported as 17.3, the EC50 (SARS-CoV-2-Nluc [2]; [5]) is reported as 0.77 to 2.74 µM and the CC50 (A549-hACE2 cells; human) is reported as 47.3 ± 2.5 µM.
In the case of Nc1ccn([C@@H]2O[C@@](CO)(CCl)[C@@H](O)[C@H]2F)c(=O)n1 [ALS-8112], the EC50 (SARS-CoV-2-Nluc [2]; [4]) is reported as > 10 µM and the CC50 (A549-hACE2 cells; human) is reported as > 50 µM.
For CC(C)(C)NC(=O)[C@@H]1CN(Cc2cccnc2)CCN1C[C@@H](O)C[C@@H](Cc1ccccc1)C(=O)N[C@H]1c2ccccc2C[C@H]1O [Indinavir], the “activity” value (SARS-CoV-2-Nluc [2]) was “inactive”, the EC50 (SARS-CoV-2-Nluc [2]; [4]) was > 10 µM and the CC50 (A549-hACE2 cells; human) was > 50 µM.
In the case of Nc1ncnc2c1ncn2[C@@H]1O[C@H](OCP(=O)(O)O)C=C1F [Rovafovir], the EC50 (SARS-CoV-2-Nluc [2]; read-out: EC50) is given as > 10 µM, the “Plasma protein binding (%)” value (plasma protein) is given as 58% and the CC50 (A549-hACE2 cells) is given as > 50 µM.
For CCN(CC)CCCC(C)Nc1ccnc2cc(Cl)ccc12 (centres unmarked) [Chloroquine], the EC50 (SARS-CoV-2-Nluc [2]; [5]) was 1.32 µM, the EC50 (SARS-CoV-2-Nluc [2]; [4]) was 1.32 µM and the CC50 (A549-hACE2 cells; human) was > 50 µM. It also gave an EC50 (SARS-CoV-2-Nluc [3]; [6]) of 3.52 µM and an EC50 (SARS-CoV-2-Nluc [3]; [7]) of 3.52 µM.
In the case of CCOc1nc(N)nc2c1ncn2[C@@H]1O[C@@H]2COP(=O)(OC(C)C)O[C@H]2[C@@]1(C)F (some centres unmarked) [PSI-352938], the EC50 (SARS-CoV-2-Nluc [2]; [4]) is reported as > 10 µM and the CC50 (A549-hACE2 cells; human) is reported as > 50 µM.
